Measurements published in ChEMBL document CHEMBL3352668, “Synthesis and antibacterial evaluation of new, unsymmetrical triaryl bisamidine compounds” (Bioorg Med Chem Lett, 2014).
In brackets after ≈: the same amount, converted by molar mass.

What was measured:
Klebsiella pneumoniae = test: Antimicrobial activity against Klebsiella pneumoniae 13882 by CLSI method; format: functional; details: Klebsiella pneumoniae, 13882; read-out: MIC
Bacillus subtilis = test: Antimicrobial activity against Bacillus subtilis BD54 by CLSI method; format: functional; details: Bacillus subtilis, BD54; read-out: MIC
Pseudomonas aeruginosa [1] = test: Antimicrobial activity against Pseudomonas aeruginosa PAO1 by CLSI method; format: functional; details: Pseudomonas aeruginosa, PAO1; read-out: MIC
Bacillus anthracis = test: Antimicrobial activity against Bacillus anthracis Sterne by CLSI method; format: functional
Escherichia coli [2] = test: Antimicrobial activity against TolC-deficient Escherichia coli by CLSI method; format: functional
[3] = Cytotoxicity against human HeLa cells by MTS assay; format: cell-based; details: HeLa cells
Escherichia coli [4] = test: Antimicrobial activity against TolC+ Escherichia coli 700 by CLSI method; format: functional; details: Escherichia coli, 700; read-out: MIC
Enterococcus faecalis = test: Antimicrobial activity against vancomycin-resistant Enterococcus faecalis ATCC 51575 by CLSI method; format: functional; details: Enterococcus faecalis, ATCC 51575; read-out: MIC
Staphylococcus aureus = test: Antimicrobial activity against methicillin-resistant Staphylococcus aureus 1094 by CLSI method; format: functional; details: Staphylococcus aureus, 1094; read-out: MIC
Pseudomonas aeruginosa [5] = test: Antimicrobial activity against mexAB-oprM deficient Pseudomonas aeruginosa PAO1 harboring by CLSI method; format: functional
[6] = Bacillus anthracis, Sterne, read-out: MIC
[7] = Escherichia coli, read-out: MIC

| SMILES | MIC (Klebsiella pneumoniae) [µg/mL] | MIC (Bacillus subtilis) [µg/mL] | MIC (Pseudomonas aeruginosa [1]) [µg/mL] | MIC (Bacillus anthracis; [6]) [µg/mL] | MIC (Escherichia coli [2]; [7]) [µg/mL] | CC50 [3] [µg/mL] | MIC (Escherichia coli [4]) [µg/mL] | MIC (Enterococcus faecalis) [µg/mL] | MIC (Staphylococcus aureus) [µg/mL] | MIC (Pseudomonas aeruginosa [5]) [µg/mL] | MIC (Bacillus anthracis) [µg/mL] | MIC (Escherichia coli [2]) [µg/mL] |
| --- | --- | --- | --- | --- | --- | --- | --- | --- | --- | --- | --- | --- |
| CC1CN=C(c2ccc3cc(-c4ccc(-c5cc6ccc(C7=NCC(C)CN7)cc6o5)cn4)[nH]c3c2)NC1 (configuration not stated) | 2.5 (≈ 4.97 µM) | 0.08 (≈ 0.159 µM) | 5 (≈ 9.95 µM) | 0.63 (≈ 1.25 µM) | 0.27 (≈ 0.537 µM) | 2.2 (≈ 4.38 µM) | 1.88 (≈ 3.74 µM) | 0.63 (≈ 1.25 µM) | 0.31 (≈ 0.617 µM) |  |  |  |
| CC1CNC(c2ccc3cc(-c4ccc(-c5cnc(N6CCOCC6)nc5)cc4)[nH]c3c2)=N1 (configuration not stated) | > 80 | 10 (≈ 22.8 µM) | > 80 | 22.5 (≈ 51.3 µM) | 60 (≈ 137 µM) | 1.3 (≈ 2.96 µM) | > 80 | > 80 | > 80 |  |  |  |
| OC1CN=C(c2ccc3cc(-c4ccc(-c5cc6ccc(C7=NCC(O)CN7)cc6o5)s4)[nH]c3c2)NC1 (configuration not stated) | 15 (≈ 29.3 µM) | 0.43 (≈ 0.84 µM) | 40 (≈ 78.2 µM) | 1.25 (≈ 2.44 µM) | 0.47 (≈ 0.919 µM) | 12.7 (≈ 24.8 µM) | 5 (≈ 9.77 µM) | 2.5 (≈ 4.89 µM) | 1.88 (≈ 3.67 µM) |  |  |  |
| c1cc2cc(-c3ccc(-c4cc5ccc(C6=NCCCN6)cc5s4)cc3)[nH]c2cc1C1=NCCCN1 | 1.25 (≈ 2.55 µM) | 0.1 (≈ 0.204 µM) | 10 (≈ 20.4 µM) | 0.16 (≈ 0.327 µM) | 0.31 (≈ 0.633 µM) | 5.9 (≈ 12 µM) | 0.63 (≈ 1.29 µM) | 0.31 (≈ 0.633 µM) | 0.31 (≈ 0.633 µM) | 10 (≈ 20.4 µM) |  |  |
| OC1CN=C(c2ccc3cc(-c4ccc(-c5cc6ccc(C7=NCC(O)CN7)cc6o5)cn4)[nH]c3c2)NC1 (configuration not stated) | 8.8 (≈ 17.4 µM) | 3.75 (≈ 7.4 µM) | 25 (≈ 49.4 µM) | 1.09 (≈ 2.15 µM) | 0.63 (≈ 1.24 µM) | 16.7 (≈ 33 µM) | 80 (≈ 158 µM) | 5 (≈ 9.87 µM) | 2.5 (≈ 4.94 µM) |  |  |  |
| CC1CNC(c2ccc3cc(-c4ccc(-c5ccc(N(C)C)cc5)cc4)[nH]c3c2)=N1 (configuration not stated) | > 80 | 0.63 (≈ 1.6 µM) | > 80 | 2.1 (≈ 5.32 µM) | > 80 | ≤ 0.63 | > 80 | 3.3 (≈ 8.36 µM) | 1.04 (≈ 2.64 µM) |  |  |  |
| Cc1c(-c2ccc(-c3cc4ccc(C5=NCCCN5)cc4o3)cc2)[nH]c2cccc(C#N)c12 | 20 (≈ 46.5 µM) | 2.5 (≈ 5.81 µM) | 40 (≈ 92.9 µM) | 2.5 (≈ 5.81 µM) | 10 (≈ 23.2 µM) |  | 20 (≈ 46.5 µM) | 5 (≈ 11.6 µM) | 5 (≈ 11.6 µM) |  |  |  |
| CN(C)c1ccc(-c2ccc(-c3cc4ccc(C5=NCCCN5)cc4[nH]3)cc2)cc1 | > 80 | 0.63 (≈ 1.6 µM) | > 80 | 0.47 (≈ 1.19 µM) | > 80 | ≤ 0.63 | > 80 | 3.1 (≈ 7.86 µM) | 1.09 (≈ 2.76 µM) |  |  |  |
| NCCCNc1cc(-c2cc3ccc(C4=NCCCN4)cc3[nH]2)ccc1-c1cc2ccc(C3=NCCCN3)cc2o1 | 1.25 (≈ 2.29 µM) | 0.24 (≈ 0.44 µM) | 2.5 (≈ 4.58 µM) | 0.63 (≈ 1.15 µM) | 0.63 (≈ 1.15 µM) | 4.6 (≈ 8.43 µM) | 2.5 (≈ 4.58 µM) | 1.25 (≈ 2.29 µM) | 0.63 (≈ 1.15 µM) |  |  |  |
| c1cc2oc(-c3ccc(-c4cc5ccc(C6=NCCCN6)cc5[nH]4)cc3)cc2cc1C1=NCCCN1 | 1.25 (≈ 2.64 µM) | 0.08 (≈ 0.169 µM) | 2.5 (≈ 5.28 µM) | 0.08 (≈ 0.169 µM) | 0.39 (≈ 0.824 µM) | 8.5 (≈ 17.9 µM) | 0.63 (≈ 1.33 µM) | 0.08 (≈ 0.169 µM) | 0.31 (≈ 0.655 µM) | 2.5 (≈ 5.28 µM) |  |  |
| c1cc2cc(-c3ccc(-c4cc5ccc(C6=NCCN6)cc5o4)s3)[nH]c2cc1C1=NCCN1 | 60 (≈ 133 µM) | 0.16 (≈ 0.354 µM) | 66.7 (≈ 148 µM) | 1.09 (≈ 2.41 µM) | 0.27 (≈ 0.598 µM) | 182 (≈ 403 µM) | 2.8 (≈ 6.2 µM) | 1.56 (≈ 3.45 µM) | 0.94 (≈ 2.08 µM) |  |  |  |
| CC1CNC(c2ccc3cc(-c4ccc(-c5cc6ccc(C7=NC(C)CN7)cc6o5)cc4)[nH]c3c2)=N1 (stereo in doubt) | 2.5 (≈ 5.28 µM) | 0.2 (≈ 0.422 µM) | 60 (≈ 127 µM) |  |  | 5.7 (≈ 12 µM) | 0.63 (≈ 1.33 µM) | 0.39 (≈ 0.824 µM) | 0.31 (≈ 0.655 µM) |  | 0.31 (≈ 0.655 µM) | 0.63 (≈ 1.33 µM) |
| c1cc2cc(-c3ccc(-c4cn5ccc(C6=NCCN6)cc5n4)cc3)[nH]c2cc1C1=NCCN1 | 5 (≈ 11.2 µM) | 2.5 (≈ 5.61 µM) | 40 (≈ 89.8 µM) | > 80 | 0.31 (≈ 0.696 µM) | 2.5 (≈ 5.61 µM) | 2.5 (≈ 5.61 µM) | > 80 | > 80 | > 80 |  |  |
| c1cc2cc(-c3ccc(-c4cn5cc(C6=NCCN6)ccc5n4)cc3)[nH]c2cc1C1=NCCN1 | 80 (≈ 180 µM) | 0.31 (≈ 0.696 µM) | > 80 | 40 (≈ 89.8 µM) | 0.63 (≈ 1.41 µM) |  | 40 (≈ 89.8 µM) | 20 (≈ 44.9 µM) | 80 (≈ 180 µM) |  |  |  |
